The test system of this data set is HeLa cells. As to the kind of experiment: Cytotoxicity of the gel components against HeLa cells (MILLIQ water as control). In kind it is cell-based. The following applies: components of the gel tested separately. The procedure: FIG. 27: cytotoxicities of (1) a gel formed from C-2 and Fe^2+ (“gel”), (2) PEG, and (3) Fe^2+ (“Fe”) against HeLa cells. MILLIQ water (“milliQ”) used as a control.
Because C-2 forms gels with Fe^2+ salts, which are biocompatible, these gels may have applications as therapeutic devices. First, the cytotoxicity of these gels was tested on HeLa cells to determine the effect of the components of the gels on cell viability. Due to the difficulty in assessing the toxicity of gel materials, the components of the gels were tested separately.

As to iron, the “cytotoxicity compared to MILLIQ water” value was “little cytotoxicity”.

The values are drawn from US10023536B2, “Suprametallogels and uses thereof” (Massachusetts Institute of Technology, priority 2014, dated 2018).
